Experimental data reported in US20260007692A1, “BIORESORBABLE ORGANIC BIOELECTRONICS” (priority 2023, published 2026).

Tests used:
HLF-1 = test: MTT cell viability assay (limiting-dilution toxicity); format: cell-based, human; details: 1 day exposure, up to 1 mg mL^−1
Method: The MTT cell viability assay was conducted to determine in vitro toxicity of A5, ETE-S and ETE-PC. Briefly, HLF-1 (2×10^4 cells well-1) were plated in a 96-well flat-bottom microplate and grown for 24 h. Cells were treated with A5, ETE-S, or ETE-PC (0-1000 μg ml^−1) for 24 h. Post-treatment, 200 μL of MTT (0.5 mg mL^−1) was added into each well and incubated at 37° C. for 4 h. After incubation, 200 μL of isopropanol was added to dissolve formazan crystals. The optical density of formazan solution, as a measure of live cells, was obtained using a microplate reader at 570 nm (Spark Cyto, Tecan). The formazan signal (live cell count) was normalized to the control samples not exposed to A5 or ETE-Rs. 3 biological and 3 technical replicates were used for each setting. Each well contained up to 200 μg of our compound (1 mg mL^−1, 200 μL) which can be compared to a typical in vivo injection of 400 ng (40 mg mL^−1, 10 nL).

[1] = molecular target: T1, horseradish peroxidase (HRP) (Armoracia rusticana, UniProt P00433); test: Enzymatic polymerization of ETE-PC with HRP and H2O2; format: biochemical; details: ETE-PC 500 μg/ml, HRP 5 U/ml
T1 construct: purchased Merck, Sigma Aldrich P8375-25KU
T1 sequence (P00433 31-338 limits assumed): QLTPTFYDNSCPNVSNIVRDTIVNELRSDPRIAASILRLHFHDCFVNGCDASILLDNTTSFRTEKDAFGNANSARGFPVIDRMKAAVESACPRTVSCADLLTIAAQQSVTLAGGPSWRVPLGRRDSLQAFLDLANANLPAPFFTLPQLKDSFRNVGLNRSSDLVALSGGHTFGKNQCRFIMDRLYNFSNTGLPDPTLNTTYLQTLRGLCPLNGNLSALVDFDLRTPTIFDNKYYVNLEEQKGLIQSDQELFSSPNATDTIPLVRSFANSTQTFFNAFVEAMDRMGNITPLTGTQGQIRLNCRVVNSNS
Method: A solution of ETE-PC (500 μg/ml) was prepared in DPBS (Thermo Fischer, Gibco, Cat no. 14190-250) and mixed with different concentrations of hydrogen peroxide (H2O2) (0.001-0.01%) and horseradish peroxidase (HRP) (Merck, Sigma Aldrich, P8375-25KU) (5 U/ml in DPBS) was added. The polymerization was examined by the change of colour of the ETE-PC solution from slightly yellow to black and taking absorbance at 350 nm and 780 nm to detect polymerized and unpolymerized ETE-PC. The absorbance maxima of polymerized and unpolymerized ETE-PC were determined by a wavelength scan using UV-Vis spectrophotometry by Spark Cyto (Tecan) multi-mode plate reader.

[2] = test system: normal human lung fibroblast (HLF-1) cells; test: Calcein-AM cytotoxicity assessment in normal lung fibroblast; format: cell-based; details: 24 hrs
Method: Study of the in vitro toxicity of ETE-PC in normal human lung fibroblast (HLF-1) cells. Briefly, HLF-1 cells were seeded in 96 well plate at a density of 2×10^4 cell per well and grown for 24 hrs. Later cells were treated with various concentrations of ETE-PC (5-1000 μg/ml) for 24 hrs. Post treatment, 200 μl live cell staining dye calcein-AM (Thermo Fisher, Invitrogen, Cat no. C3100MP) (2 μM in PR free DMEM) was added to wells and incubated for 30 min followed by examination of live cells using fluorescence cell imaging (Spark Cyto cell imager, Tecan).

[3] = Oxidation / redox potential of trimers and EDOT monomer; format: physicochemical

Row | H2O2 concentration at which polymerization by HRP got saturated [1] | concentration of H2O2 required for HRP mediated polymerization [1] | oxidation potential [3] | Compound | cell toxicity (HLF-1) | morphology in phase contrast images ([2]; 5-1000 μg/ml) | calcein-AM fluorescence vs control ([2]; even at 1000 μg/ml)
1 | 0.002% | 0.001% | – | C[N+](C)(C)CCOP(=O)([O-])OCCc1cc(-c2scc3c2OCCO3)sc1-c1scc2c1OCCO2 [ETE-PC] | neither A5 nor ETE-PC showed cell toxicity | No detrimental change in morphology of HLF-1 cells was observed | no change the calcein-AM fluorescence
2 | – | – | 1.2 V | c1scc2c1OCCO2 [EDOT, 3,4-ethylenedioxythiophene] | – | – | –
3 | – | – | – | O=S(=O)(O)CCCCOCCc1cc(-c2scc3c2OCCO3)sc1-c1scc2c1OCCO2 [ETE-S, sodium 4-(2-(2,5-bis(2,3-dihydrothieno[3,4-b][1,4]dioxin-5-yl)thiophene-3-yl)ethoxy)butane-1-sulfonate] | some toxicity at high concentrations | – | –
